Assay results taken from patent US6429204B1, “Method of inhibiting cancer growth” (University of Miami, priority 1997, dated 2002).
Like-named read-outs stand apart in the source and are kept apart here.

Columns and labels:
Gelatinase B = biological target: T1, Gelatinase B (Homo sapiens, UniProt P14780); assay: Zymography with densitometry of C8161 conditioned medium, gelatinase B; assay type: cell-based; conditions: 50 μg/mL, 24 hr
T1 construct: endogenous in cells; host or cells: C8161
Procedure: (§1) Six hundred thousand (6×10^5) C8161 cells were seeded per well in a 12-well dish coated with a laminin/collagen IV/gelatin matrix in DMEM plus Mito+ and 0.1% gentamicin sulfate. After approximately 1 hr incubation to allow the cells to attach, 50 μg/mL of either doxycycline or one of the other CMTs was added per well and the dish then placed in a 37° C. humidified 5% CO2 incubator. After 24 hr, the supernatants were removed and centrifuged to remove any cells or debris. One volume of Laemmli sample buffer minus reductant was added to two volumes of the medium, and this sample electrophoresed without prior heating or boiling on a 10% SDS-PAGE containing 0.1% gelatin (samples normalized based on the same number of cells per volume of medium per time of incubation). After electrophoresis, the gels were washed with gentle shaking at room temperature for 30 min in 50 mM Tris-HCl (pH 7.5) plus 2.5% TRITON® X100 plus 50 μg/mL of the corresponding CMT used in the original treatment. The gel was then placed in incubation buffer (50 mM Tris-Cl/10 mM CaCl2/150 mM NaCl/0.05% NaN3) also containing 50 μg/mL of the corresponding CMT, and incubated at 37° C. for 20-24 hr. The gels were stained with Coomassie BBR-250, then destained with 10% methanol/10% acetic acid in water until the wash remained clear. A photographic negative of the gel was digitized using a video camera and Snappy Video Snapshot system (Play Inc., Rancho Cordova, Calif.). An integrated density was determined for each of the cleared zones of proteolysis using the software ImagePC8α (freely available from the National Institutes of Health), and the corresponding changes in gelatinolytic activities reported compared to the control samples normalized to a value of 1.0.

E-10 Cells [1] = assay: MTS cytotoxicity assay, E-10; conditions: two days
C8161 cells [2] = assay: C8161 cell proliferation (doubling time); assay type: cell-based, human; conditions: 50 μg/mL; for Doubling Time: on plastic, DMSO 22 hr; for increase of doubling time: versus DMSO
Procedure: Cell Culture and Maintenance: C8161 cells, a human melanoma cell line, were maintained in Dulbecco's modified Eagle's medium (DMEM; […] These cells were routinely screened for Mycoplasma contamination using the GenProbe Rapid Detection System (Fisher Scientific; Chicago, Ill.). Chemically Modified Tetracyclines: Fresh stock solutions of the chemically modified tetracycline compounds (2 mg/mL) were prepared for each experiment by hydrating in 2% dimethyl sulfoxide (DMSO)/water pH 10, then adjusting to pH 7.4 using 1.0 M HCl. […] Sigma Chem. Co.; control) or 50 μg/mL of doxycycline or the other CMTs (three wells on each plate per compound). […] The doubling time for C8161 cells in the presence of each compound was then determined and compared to the DMSO treated cells (control).

C8161 cells [3] = assay: In vivo metastasis assay, C8161 cells i.v. in SCID mice; conditions: for Number of Lung Metastases/Mouse: Average ± SEM, control 231 ± 49
Procedure: Immunosuppressed mice (athymic nude/nude SCID females from Harlan Sprague Dawley) were housed in autoclaved cages with microisolator tops, and all manipulations of the animals were done in a laminar flow hood after wiping down both the hood, gloves and cages with ABQ sterilant. The mice were fed sterile Pico Lab Chow (Purina) and autoclaved St. Louis tap water. […] The compounds and control (sterile water plus 2% carboxymethyl cellulose) were kept stored at −80° C. wrapped in aluminum foil to prevent any light induced changes, and each day's supply was thawed just prior to use. Four compounds were tested for their effects on the metastatic potential of C8161 cells injected intravenously via the tail vein: […] The concentration of the compounds in the vials used to give the 100 mg/kg doses were 2.5 times that in the 40 mg/kg dose so that approximately the same volume was used in both cases, approximately 0.5 mL/animal. The experiments started with nine animals per group at day −4. On day zero, 2×10^5 C8161 cells in cold Hank's Balanced Salt Solution (HBSS) were injected intravenously via tail vein inoculation. The experiment was continued for an additional 24 days, at which time the animals were sacrificed and their lungs removed and fixed in a solution of Bouins/formaldehyde (5 parts:1 part). Tumors were quantitated on the entire surface of the lungs by rotating the lungs and counting the tumors on each lobe using a 6× magnifying glass. Statistical analysis was performed using the statistical package of Microsoft's Excel spreadsheet software.

COLO 205 Cells [4] = assay: MTS cytotoxicity assay, COLO 205; conditions: two days
Procedure: (§2) A panel of chemically modified tetracycline compounds and doxycycline were tested for cytotoxicity against two carcinomas: COLO 205 (a human colon carcinoma-derived cell line) and the E-10 clone of MDA-MB-231 (a human breast carcinoma-derived cell line). Cytoxicity was measured using a conventional assay for viability with a tetrazolium salt (MTS). Cells were grown in media containing the CMTs at concentrations ranging from 5 μM to 100 μM for two days. The cells were then incubated with the MTS for several hours before removal of the supernatant medium for determination of formazan, which is generated only by the viable cells. Results are expressed as percent cytotoxicity, which is simply the percent decline in measured formazan concentration in the sampled medium.

Gelatinase A = biological target: T2, Gelatinase A (Homo sapiens, UniProt P08253); assay: Zymography with densitometry of C8161 conditioned medium, gelatinase A; assay type: cell-based; conditions: 50 μg/mL, 24 hr
T2 construct: endogenous in cells; host or cells: C8161
T2 sequence (P08253 110-660): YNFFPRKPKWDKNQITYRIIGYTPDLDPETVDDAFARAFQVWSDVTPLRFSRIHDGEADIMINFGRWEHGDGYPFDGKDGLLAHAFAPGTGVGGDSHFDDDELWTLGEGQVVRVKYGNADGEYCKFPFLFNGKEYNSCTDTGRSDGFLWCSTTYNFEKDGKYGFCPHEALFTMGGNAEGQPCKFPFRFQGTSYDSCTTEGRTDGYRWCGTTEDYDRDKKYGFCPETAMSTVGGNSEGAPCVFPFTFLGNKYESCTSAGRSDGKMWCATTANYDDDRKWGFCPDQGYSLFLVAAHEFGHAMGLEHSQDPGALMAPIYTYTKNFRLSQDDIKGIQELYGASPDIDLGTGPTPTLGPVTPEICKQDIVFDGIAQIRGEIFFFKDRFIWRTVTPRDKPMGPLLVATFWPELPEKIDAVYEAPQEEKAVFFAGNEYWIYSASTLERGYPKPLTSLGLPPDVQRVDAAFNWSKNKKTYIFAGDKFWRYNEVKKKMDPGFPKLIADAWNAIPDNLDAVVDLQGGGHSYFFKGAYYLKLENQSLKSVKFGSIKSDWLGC
Procedure: as §1

[5] = test system: C8161 human melanoma cells; assay: In vitro invasion assay (MICS), laminin/collagen IV/gelatin matrix-coated filter; assay type: cell-based; conditions: 3, 20 and 50 μg/mL; for Percent Inhibition of invasive potential: 48 hr
Procedure: The in vitro invasive potentials of the control (DMSO only) and chemically-modified tetracycline treated cells were measured using a modified Boyden chamber as previously described (Membrane Invasion Culture System, MICS). An intervening barrier consisting of a polycarbonate filter containing 10 μm pores (Osmonics, Livermore, Calif.) coated with a defined matrix of human laminin/collagen IV/gelatin (Sigma, St. Louis, Mo.) was used for these studies. […] Doxycycline or individual CMTs were then added to different wells of the chamber at 3, 20 or 50 μg/mL 2 hr post-seeding and daily during the assay. After 48 hr, the cells were removed from the lower wells and the number of invasive cells was determined and compared to the original number of cells seeded into the upper wells. Where appropriate, data were corrected for proliferation during the period of the in vitro assay.

COLO 205 Cells [6] = test system: COLO 205 Cells
Procedure: as §2

E-10 Cells [7] = test system: E-10 Cells
TSU-PR1 cells = assay: Matrigel invasion assay (Boyden chamber, MTT), TSU-PR1; assay type: cell-based, human; conditions: TSU-PR1, 48 hr
Procedure: In this method, 4×10^5 tumor cells were plated on the top chamber of the Boyden chemotaxis assay chambers (Costar Transwell plates). The bottom side of the chamber was a 12 μm-pore polycarbonate filter layered with 0.5 mm thick layer of Matrigel. The bottom well contained a chemoattractant, a serum-free culture-conditioned medium from FHS 733 cells, a line of human fetal lung fibroblasts (ATCC No. HTB-157). Cancer cells (4×10^5) were plated in the top wells of the plates. Doxycycline or CMTs were diluted in a serum-free medium to 5 μg/mL, and were added to both top and bottom chambers. […] After 48 hr incubation, MTT was added to both the top and bottom wells (0.5 mg/mL), and incubation was continued for 4 hr. Wells were then emptied, and the cells from the undersides of the filter were pooled with those in the bottom wells with a filter tip. The reduced MTT (formazan) from top and bottom wells was solubilized with DMSO overnight, and absorbance (O.D.) at 515 nm was measured. The ratio of the O.D. from the bottom wells to that of the total (i.e., O.D. of top plus bottom wells) was taken as the invasive potential. […] The MTT assay procedure also normalizes the coincident inhibition due to the cytotoxic effects of the agents under investigation. Results presented are from three independent experiments.

[8] = test system: DU-145 and TSU-PR1 prostate cancer cell lines; assay: Prostate cancer cell viability/proliferation (trypan blue, MTT); assay type: cell-based, human
From the text: To determine the cytotoxicity of CMTs on prostate tumor cell lines, TSU-PR1 cells (and cells of other tumor cell lines) were exposed to various CMTs or to doxycycline for 24 hr or 48 hr in a complete medium. Cell viability (percent of live cells) was estimated by counting the cells following trypan blue staining. Cellular viability was also estimated by the tetrazolium dye reduction assay (MTT assay) (Lokeshwar et al. 1995b). Due to the aggressive proliferative capacity of cancer cells, it is assumed that viable cells are actively proliferating. Therefore, the measurement of viability was used as an estimate of proliferation. Results are expressed as Mean±SEM from three separate experiments.

T1 sequence (P14780 94-707): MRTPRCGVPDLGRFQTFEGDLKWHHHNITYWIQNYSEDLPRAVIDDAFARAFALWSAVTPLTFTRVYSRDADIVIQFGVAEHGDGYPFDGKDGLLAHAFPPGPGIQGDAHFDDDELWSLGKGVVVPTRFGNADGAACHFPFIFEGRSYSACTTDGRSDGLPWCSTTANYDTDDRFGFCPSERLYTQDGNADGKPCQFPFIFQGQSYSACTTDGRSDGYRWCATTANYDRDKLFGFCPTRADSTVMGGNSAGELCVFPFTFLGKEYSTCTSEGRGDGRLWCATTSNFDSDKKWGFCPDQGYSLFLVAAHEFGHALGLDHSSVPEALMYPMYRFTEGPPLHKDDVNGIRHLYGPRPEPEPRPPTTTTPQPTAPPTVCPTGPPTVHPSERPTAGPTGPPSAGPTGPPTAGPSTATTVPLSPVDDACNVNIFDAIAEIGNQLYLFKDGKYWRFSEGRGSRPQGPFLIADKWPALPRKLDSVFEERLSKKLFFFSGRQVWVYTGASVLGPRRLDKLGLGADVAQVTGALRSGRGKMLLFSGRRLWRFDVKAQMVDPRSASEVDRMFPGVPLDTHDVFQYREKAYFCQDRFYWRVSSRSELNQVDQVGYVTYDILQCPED

Compound | Gelatinase B, integrated density normalized to control 1.00 (Gelatinase B) | percent cytotoxicity (E-10 Cells [1]; 5 μM) [%] | percent cytotoxicity (E-10 Cells [1]; 10 μM) [%] | percent cytotoxicity (E-10 Cells [1]; 20 μM) [%] | percent cytotoxicity (E-10 Cells [1]; 50 μM) [%] | percent cytotoxicity (E-10 Cells [1]; 100 μM) [%] | Doubling Time (C8161 cells [2]) [h] | increase of doubling time (C8161 cells [2]) | Number of Lung Metastases/Mouse (C8161 cells [3]; 40 mg/kg daily intragastric) | Number of Lung Metastases/Mouse (C8161 cells [3]; 100 mg/kg daily intragastric) | percent cytotoxicity (COLO 205 Cells [4]; 5 μM) [%] | percent cytotoxicity (COLO 205 Cells [4]; 10 μM) [%] | percent cytotoxicity (COLO 205 Cells [4]; 20 μM) [%] | percent cytotoxicity (COLO 205 Cells [4]; 50 μM) [%] | percent cytotoxicity (COLO 205 Cells [4]; 100 μM) [%] | Gelatinase A, integrated density normalized to control 1.00 (Gelatinase A) | Type of Inhibition [5] | Percent Inhibition of invasive potential [5] | effect on number of lung metastases (significance) (C8161 cells [3]; at either dosage, p>0.05) | other results
CC1(O)c2cccc(O)c2C(=O)C2=C(O)C3(O)C(=O)C(C(N)=O)=C(O)CC3CC21 (stereo not drawn) [CMT-1, 4-de(dimethylamino)tetracycline] | 0.22 | 7.6 | 0 | 0 | 2.2 | 7.6 | 24 | approximately 9% | 129 ± 102 | 240 ± 28 | 0 | 4 | 32.5 | 63.8 | 82.8 | 0.24 | dose-dependent | 26-58% | – | effect on number of lung metastases (significance) (C8161 cells [3]; 40 mg/kg daily, p<0.05): significantly reduced the number of lung metastases; effect on number of lung metastases (significance) (C8161 cells [3]; 100 mg/kg): did not significantly reduce the number of lung metastases
CC1(O)c2c(Cl)ccc(O)c2C(=O)C2=C(O)C3(O)C(=O)C(C(N)=O)=C(O)CC3CC21 (stereo not drawn) [CMT-4, 4-de(dimethylamino)-7-chlorotetracycline] | 0.12 | – | – | – | – | – | 22 | did not affect the doubling time | – | – | – | – | – | – | – | 0.75 | non-dose | ˜20% | – | percent cytotoxicity (COLO 205 Cells [6]; 5 µM): 1.8%; percent cytotoxicity (COLO 205 Cells [6]; 10 µM): 6.8%; percent cytotoxicity (COLO 205 Cells [6]; 20 μM): 25.3%; percent cytotoxicity (COLO 205 Cells [6]; 50 µM): 73.3%; percent cytotoxicity (COLO 205 Cells [6]; 100 µM): 81.9%; percent cytotoxicity (E-10 Cells [7]; 5 µM): 9%; percent cytotoxicity (E-10 Cells [7]; 10 µM): 16.7%; percent cytotoxicity (E-10 Cells [7]; 20 μM): 0.8%; percent cytotoxicity (E-10 Cells [7]; 50 µM): 0%; percent cytotoxicity (E-10 Cells [7]; 100 µM): 0%
CC1(O)c2cccc(O)c2C(=O)C2=C(O)C3C(=O)C(C(N)=O)=C(O)CC3CC21 (stereo not drawn) [CMT-7, 4-de(dimethylamino)-12α-deoxytetracycline] | 1.22 | 0 | 0 | 0 | 0 | 8.3 | 24 | approximately 9% | 136 ± 107 | 166 ± 101 | 0 | 0 | 0 | 0 | 29.4 | 0.17 | non | 15-55% | did not significantly reduce the number of lung metastases | 50% inhibitory dose (IC50), Matrigel invasion (TSU-PR1 cells): > 100 µg/mL
C[C@H]1c2cccc(O)c2C(O)=C2C(=O)[C@]3(O)C(O)=C(C(N)=O)C(=O)C[C@@H]3[C@@H](O)[C@@H]21 [CMT-8, 6α-deoxy-5-hydroxy-4-de(dimethylamino)tetracycline] | 1.05 | 0 | 0 | 0 | 0 | 0 | 26 | approximately 18% | 186 ± 60 | – | 0 | 20.5 | 35.5 | 44.4 | 50 | 0.70 | non-dose | ˜12% | did not significantly reduce the number of lung metastases | –
tetracycline pyrazole [CMT-5] | – | – | – | – | – | – | – | – | – | – | – | – | – | – | – | – | – | – | – | inhibition of cell proliferation [8]: not inhibitory
